Measurements published in patent publication US5525626A (priority 1989, dated 1996).

What was measured:
Assay in all cases: 3H-thymidine assay
Format in all cases: cell-based
[1] = test system: Tp 483 MG glioblastoma cells
[2] = test system: Tp 410 N neuroblastoma cells; settings: Homo sapiens, Neuroblastoma cell
Daudi leukemic cells = settings: Homo sapiens
K-562 leukemic cells = settings: Homo sapiens
Outline: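 Antiproliferative activity against human K562 leukemia cells was measured by 3H-thymidine incorporation. Cells were seeded at 10^4 per well in 24-well plates and grown about 48 hours to half-confluence, then given medium containing the active substance. After two ice-cold PBS washes, macromolecular 3H was precipitated with 5% trichloroacetic acid for one hour at 4° C, dissolved in 0.3M NaOH and counted.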

CAKI-2 cells = settings: Homo sapiens
Outline: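 Cells were seeded in 24-well plates at 10^4 cells per well and grown about 48 hours until half-confluent. The medium was then replaced with medium containing the test substance. After two washes in ice-cold PBS, acid-insoluble 3H label was precipitated with 5% trichloroacetic acid for one hour at 4° C. Label was dissolved in 0.3M NaOH and counted, and thymidine incorporation was compared with untreated cells.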

HCV cells = test system: HCV cells
[3] = test system: Z-R-75-1 breast cancer cells; settings: Homo sapiens
[4] = test system: GV-1 prostate carcinoma cells
G-361 melanoma cells = settings: Homo sapiens
[5] = read-out: 3H-thymidine insertion (%) of control
[6] = read-out: active substance concentration at which 3H-thymidine insertion was 50% inhibited
[7] = read-out: 3H-thymidine tracer (%) of control
[8] = K562, read-out: 3H-thymidine tracer (%) of control
[9] = CAKI-2, read-out: 3H-thymidine tracer (%) of control
[10] = ZR-75-1, read-out: 3H-thymidine tracer (%) of control
[11] = G-361, read-out: 3H-thymidine tracer (%) of control

O=c1ccc2cc(O[C@@H]3O[C@H](CO)[C@@H](O)[C@H](O)[C@H]3O)c(O)cc2o1 [Esculin, 6-beta-D-glucopyranosyloxy-7-hydroxy-1,2-benzopyrone]
activity at 1 µM [1, 5]: 99% | activity at 2 µM [1, 5]: 97% | activity at 4 µM [1, 5]: 89% | activity at 8 µM [1, 5]: 83% | activity at 16 µM [1, 5]: 74% | activity at 25 µM [1, 5]: 66% | activity at 50 µM [1, 5]: 54% | activity at 100 µM [1, 5]: 51% | activity at 250 µM [1, 5]: 48% | activity at 500 µM [1, 5]: 45% | IC50 [1, 6]: 100 µM | activity at 1 µM [2, 5]: 100% | activity at 2 µM [2, 5]: 96% | activity at 4 µM [2, 5]: 85% | activity at 8 µM [2, 5]: 76% | activity at 16 µM [2, 5]: 69% | activity at 25 µM [2, 5]: 62% | activity at 50 µM [2, 5]: 54% | activity at 100 µM [2, 5]: 43% | activity at 250 µM [2, 5]: 38% | activity at 500 µM [2, 5]: 30% | IC50 [2, 6]: 75 µM | activity at 1 µM (Daudi leukemic cells; [7]): 100% | activity at 2 µM (Daudi leukemic cells; [7]): 98% | activity at 4 µM (Daudi leukemic cells; [7]): 93% | activity at 8 µM (Daudi leukemic cells; [7]): 87% | activity at 16 µM (Daudi leukemic cells; [7]): 80% | activity at 25 µM (Daudi leukemic cells; [7]): 71% | activity at 50 µM (Daudi leukemic cells; [7]): 69% | activity at 100 µM (Daudi leukemic cells; [7]): 52% | activity at 250 µM (Daudi leukemic cells; [7]): 48% | activity at 500 µM (Daudi leukemic cells; [7]): 44% | IC50 (Daudi leukemic cells; [6]): 100 µM | activity at 1 µM (K-562 leukemic cells; [8]): 100% | activity at 2 µM (K-562 leukemic cells; [8]): 100% | activity at 4 µM (K-562 leukemic cells; [8]): 96% | activity at 8 µM (K-562 leukemic cells; [8]): 88% | activity at 16 µM (K-562 leukemic cells; [8]): 81% | activity at 25 µM (K-562 leukemic cells; [8]): 72% | activity at 50 µM (K-562 leukemic cells; [8]): 70% | activity at 100 µM (K-562 leukemic cells; [8]): 58% | activity at 250 µM (K-562 leukemic cells; [8]): 51% | activity at 500 µM (K-562 leukemic cells; [8]): 40% | IC50 (K-562 leukemic cells; K562, read-out: active substance concentration at which 3H-thymidine insertion was 50% inhibited): 250 µM | activity at 1 µM (CAKI-2 cells; [9]): 99% | activity at 2 µM (CAKI-2 cells; [9]): 96% | activity at 4 µM (CAKI-2 cells; [9]): 90% | activity at 8 µM (CAKI-2 cells; [9]): 84% | activity at 16 µM (CAKI-2 cells; [9]): 73% | activity at 25 µM (CAKI-2 cells; [9]): 72% | activity at 50 µM (CAKI-2 cells; [9]): 66% | activity at 100 µM (CAKI-2 cells; [9]): 50% | activity at 150 µM (CAKI-2 cells; [9]): 56% | activity at 500 µM (CAKI-2 cells; [9]): 52% | IC50 (CAKI-2 cells; CAKI-2, read-out: active substance concentration at which 3H-thymidine insertion was 50% inhibited): > 500 µM | activity at 1 µM (HCV cells; [7]): 100% | activity at 2 µM (HCV cells; [7]): 98% | activity at 4 µM (HCV cells; [7]): 95% | activity at 8 µM (HCV cells; [7]): 89% | activity at 16 µM (HCV cells; [7]): 86% | activity at 25 µM (HCV cells; [7]): 83% | activity at 50 µM (HCV cells; [7]): 79% | activity at 250 µM (HCV cells; [7]): 76% | activity at 500 µM (HCV cells; [7]): 75% | IC50 (HCV cells; [6]): > 500 µM | activity at 1 µM [3, 10]: 100% | activity at 2 µM [3, 10]: 97% | activity at 4 µM [3, 10]: 89% | activity at 8 µM [3, 10]: 85% | activity at 16 µM [3, 10]: 75% | activity at 25 µM [3, 10]: 72% | activity at 50 µM [3, 10]: 64% | activity at 100 µM [3, 10]: 56% | activity at 250 µM [3, 10]: 51% | activity at 500 µM [3, 10]: 47% | IC50 ([3]; ZR-75-1, read-out: active substance concentration at which 3H-thymidine insertion was 50% inhibited): 250 µM | activity at 1 µM [4, 7]: 97% | activity at 2 µM [4, 7]: 95% | activity at 4 µM [4, 7]: 85% | activity at 8 µM [4, 7]: 84% | activity at 16 µM [4, 7]: 79% | activity at 25 µM [4, 7]: 76% | activity at 50 µM [4, 7]: 68% | activity at 100 µM [4, 7]: 60% | activity at 250 µM [4, 7]: 51% | activity at 500 µM [4, 7]: 43% | IC50 [4, 6]: 250 µM | activity at 1 µM (G-361 melanoma cells; [11]): 98% | activity at 2 µM (G-361 melanoma cells; [11]): 94% | activity at 4 µM (G-361 melanoma cells; [11]): 90% | activity at 8 µM (G-361 melanoma cells; [11]): 86% | activity at 16 µM (G-361 melanoma cells; [11]): 81% | activity at 25 µM (G-361 melanoma cells; [11]): 74% | activity at 50 µM (G-361 melanoma cells; [11]): 70% | activity at 100 µM (G-361 melanoma cells; [11]): 63% | activity at 250 µM (G-361 melanoma cells; [11]): 60% | activity at 500 µM (G-361 melanoma cells; [11]): 54% | IC50 (G-361 melanoma cells; G-361, read-out: active substance concentration at which 3H-thymidine insertion was 50% inhibited): > 500 µM
